Laboratory results taken from US20240190889A1, “NEW CYCLOPENTA-THIENO-DIAZEPINE DERIVATIVES AS GABA A GAMMA1 POSITIVE ALLOSTERIC MODULATORS” (Hoffmann-La Roche Inc., priority 2021, published 2024).
pKi: −log10 of the molar value. Read-outs that look alike come from different tables or passages of the source.

Columns and labels:
[1] = molecular target: human GABAA α2β2γ1 receptor (Homo sapiens (Human), UniProt P47869+Q8N1C3); assay: Radioligand binding assay, competition for [3H]RO7239181, γ1-containing GABAA subtypes
Experimental: Membrane Preparation and Binding Assay for γ1-containing GABAA Subtypes
The affinity of compounds at GABAA γ1 subunit-containing receptors was measured by competition for [^3H]RO7239181 (67.3 Ci/mmol: Roche) binding to membranes from HEK293F cells (ThermoFisher R79007) expressing human (transiently transfected) receptors of composition α5β2γ1, α2β2γ1, α1β2γ1.
Harvested pellets from HEK293F cells expressing the different GABAA receptor subtypes were resuspended in Mannitol Buffer pH 7.2-7.4 (Mannitol 0.29 M, Tricthylamine 10 mM. Acetic acid 10 mM. EDTA 1 mM plus protease inhibitors (20 tablets Complete. Roche Diagnostics Cat. No. 05 056 489 001 per liter)), washed two times and then resuspended at 1:10 to 1:15 dilution in the same buffer. Cell disruption was performed by stirring the suspension in a Parr vessel #4637 at 435 psi for 15 minutes, and then the suspensions were centrifuged at 1000×g for 15 minutes at 4° C. (Beckman Avanti J-HC: rotor JS-4.2). The supernatant (S1) was transferred in a 21 Schott flask and the pellet (P1) was resuspended with Mannitol Buffer up to 175 ml. The resuspended pellet was transferred into a 250 ml Corning centrifugal beaker and centrifuged at 1500 ×g for 10 minutes at 4° C. (Beckman Avanti J-HC: rotor JS-4.2). The supernatant (S1) was then transferred in the 21 Schott flask and the pellet was discarded. The supernatants (S1) were centrifuged in 500ml Beckman polypropylene centrifugal beaker at 15 000×g for 30 minutes at 4° C. (Beckman Avanti J-20 XP; rotor JLA-10.500). The pellet (P2) was resuspended with Mannitol Buffer 1:1 and frozen at −80° C. The supernatant (S2) was centrifuged in 100 ml Beckman polypropylene centrifugal tubes at 48000×g for 50 minutes at 4 °C (Beckman Avanti J-20 XP: rotor JA-18). The supernatant (S3) was discarded and the pellet (P3) was resuspended with 1:1 Mannitol Buffer. The P2 and P3 protein concentration was determined with the BIORAD Standard assay method with bovine serum albumin as standard and measured on the NANO-Drop 1000. The membrane suspension was aliquots (500μl per tube) and stored at −80° C. until required.
Membrane homogenates were resuspended and polytronised (Polytron PT1200E Kinematica AG) in Potassium Phosphate 10 mM, KCl 100 mM binding buffer at pH 7.4 to a final assay concentration determined with a previous experiment.
Radioligand binding assays were carried out in a volume of 200 μL (96-well plates) which contained 100 μL of cell membranes. […] Assays were incubated to equilibrium for 1 hour at 4° C. and then, membranes were filtered onto unifilter (96-well white microplate with bonded GF/C filters preincubated 20-50 minutes in 0.3% Polyethylenimine) with a Filtermate 196 harvester (Packard BioScience) and washed 4 times with cold Potassium Phosphate 10 mM pH 7.4. KCl 100 mM binding buffer. After anhydrousing, filter-retained radioactivity was detected by liquid scintillation counting. Ki values were calculated using Excel-Fit (Microsoft) and are the means of two determinations.

[2] = molecular target: human GABAA α1β3γ2 receptor (Homo sapiens (Human), UniProt P14867+P18507); assay: Radioligand binding assay, competition for [3H]Flumazenil, γ2-containing GABAA subtypes; settings: for γ2/γ1 Selectivity Ratio: Ki α1β3γ2 (nM)/Ki α2β2γ1 (nM); for LogSel: Log[Ki α1β3γ2 (nM)/Ki α2β2γ1 (nM)]
Experimental: Membrane Preparation and Binding Assay for γ2-containing GABAA Subtypes
The affinity of compounds at GABAA γ2 subunit-containing receptors was measured by competition for [^3H]Flumazenil (81.1 Ci/mmol; Roche) binding to HEK293F cells expressing human (transiently transfected) receptors of composition α1β3γ2.
Harvested pellets from HEK293F cells expressing the different GABAA γ2 receptor subtypes were resuspended in Mannitol Buffer pH 7,2-7,4 and processed as described above for the cells expressing the GABAA γ1 subunit-containing receptors.
Assays were incubated to equilibrium for 1 hour at 4° C, and harvested onto GF/C uni-filters (Packard) by filtration using a Packard harvester and washing with ice-cold wash buffer (50 mM Tris; pH 7.5). After anhydrousing, filter-retained radioactivity was detected by liquid scintillation counting. Ki values were calculated using Excel-Fit (Microsoft) and are the means of two determinations.

[3] = read-out: Ki h-GABAA α2β2γ1, membranes from HEK293F cells, [3H]RO7239181 20-30 nM, mean of two determinations
[4] = HEK293F cell membranes, [3H]Flumazenil 1 nM, mean of two determinations, read-out: Ki h-GABAA α1β3γ2

| SMILES | pKi [1] | pKi [1, 3] | pKi [2] | γ2/γ1 Selectivity Ratio [2] | LogSel [2] | pKi [2, 4] |
| --- | --- | --- | --- | --- | --- | --- |
| C[C@@H]1N=C(c2c(F)cccc2F)c2c(sc3c2C[C@@H](C(F)F)C3)-n2c(CO)cnc21 [Example 21, [(7S,13R)-13-(difluoromethyl)-9-(2,6-difluorophenyl)-7-methyl-16-thia-2,5,8-triazatetracyclo [8.6.0.02,6.011,15]hexadeca-1(10),3,5,8,11(15)-pentaen-3-yl]methanol] | 8.53 | 8.53 | 6.22 | 127.6 | 2.11 | – |
| C[C@@H]1N=C(c2c(F)cccc2F)c2c(sc3c2C[C@@H](C(F)F)C3)-n2nc(C(=O)N3CCS(=O)(=O)CC3)nc21 [Example 19, [(7S,13R)-13-(difluoromethyl)-9-(2,6-difluorophenyl)-7-methyl-16-thia-2,3,5,8-tetrazatetracyclo [8.6.0.02,6.011,15]hexadeca-1(10),3,5,8,11(15)-pentaen-4-yl]-(1,1-dioxo-1,4-thiazinan-4-yl)methanone] | 8.27 | 8.27 | – | 162.3 | 2.21 | 6.06 |
| C[C@@H]1N=C(c2c(F)cccc2F)c2c(sc3c2C[C@@H](C(F)F)C3)-n2nc(C(=O)NCCO)nc21 [Example 18, (7S,13R)-13-(difluoromethyl)-9-(2,6-difluorophenyl)-N-(2-hydroxyethyl)-7-methyl-16-thia-2,3,5,8-tetrazatetracyclo [8.6.0.02,6.011,15]hexadeca-1(10),3,5,8,11(15)-pentaene-4-carboxamide] | 8.24 | 8.24 | – | 107.2 | 2.03 | 6.21 |
| Fc1cccc(F)c1C1=NCc2nnc(C3CC3)n2-c2sc3c(c21)C[C@@H](C(F)F)C3 [Example 7, (13R)-3-cyclopropyl-13-(difluoromethyl)-9-(2,6-difluorophenyl)-16-thia-2,4,5,8-tetrazatetracyclo [8.6.0.02,6.011,15]hexadeca-1(10),3,5,8,11(15)-pentaene] | 8.19 | 8.19 | 6.52 | 47.3 | 1.67 | – |
| Cc1nnc2n1-c1sc3c(c1C(c1c(F)cccc1Cl)=NC2)C[C@@H](C(F)F)C3 [Example 4, (13R)-9-(2-chloro-6-fluoro-phenyl)-13-(difluoromethyl)-3-methyl-16-thia-2,4,5,8-tetrazatetracyclo [8.6.0.02,6.011,15]hexadeca-1(10),3,5,8,11(15)-pentaene] | 8.34 | 8.34 | 6.46 | 74.8 | 1.87 | – |
| Cc1nnc2n1-c1sc3c(c1C(c1c(F)cccc1F)=NC2)C[C@@H](C#N)C3 [Example 2, (13R)-9-(2,6-difluorophenyl)-3-methyl-16-thia-2,4,5,8-tetrazatetracyclo [8.6.0.02,6.011,15]hexadeca-1(10),3,5,8,11(15)-pentaene-13-carbonitrile] | 7.37 | 7.37 | – | 50.7 | 1.71 | 5.66 |
| Cc1cnc2n1-c1sc3c(c1C(c1c(F)cccc1F)=N[C@H]2C)C[C@@H](C(F)F)C3 [Example 20, (7S,13R)-13-(difluoromethyl)-9-(2,6-difluorophenyl)-3,7-dimethyl-16-thia-2,5,8-triazatetracyclo [8.6.0.02,6.011,15]hexadeca-1(10),3,5,8,11(15)-pentaene] | 8.65 | 8.65 | 6.72 | 53.4 | 1.73 | – |
| Cc1nnc2n1-c1sc3c(c1C(c1c(F)cccc1F)=N[C@H]2C)C[C@@H](C)C3 [Example 15, (7S,13R)-9-(2,6-difluorophenyl)-3,7,13-trimethyl-16-thia-2,4,5,8-tetrazatetracyclo [8.6.0.02,6.011,15]hexadeca-1(10),3,5,8,11(15)-pentaene] | 8.20 | 8.20 | 7.00 | 16.1 | 1.21 | – |
| Cc1nc2n(n1)-c1sc3c(c1C(c1c(F)cccc1F)=N[C@H]2C)C[C@@H](C(F)F)C3 [Example 16, (7S,13R)-13-(difluoromethyl)-9-(2,6-difluorophenyl)-4,7-dimethyl-16-thia-2,3,5,8-tetrazatetracyclo [8.6.0.02,6.011,15]hexadeca-1(10),3,5,8,11(15)-pentaene] | 8.64 | 8.64 | 6.35 | 191.1 | 2.28 | – |
| C[C@@H]1N=C(c2c(F)cccc2Cl)c2c(sc3c2C[C@@H](C(F)F)C3)-n2c(-c3cccnn3)nnc21 [Example 12, (7S,13R)-9-(2-chloro-6-fluoro-phenyl)-13-(difluoromethyl)-7-methyl-3-pyridazin-3-yl-16-thia-2,4,5,8-tetrazatetracyclo [8.6.0.02,6.011,15]hexadeca-1(10),3,5,8,11(15)-pentaene] | 7.87 | 7.87 | 5.63 | 176.0 | 2.25 | – |
| Fc1cccc(F)c1C1=NCc2nnc(-c3cccnn3)n2-c2sc3c(c21)C[C@@H](C(F)F)C3 [Example 10, (13R)-13-(difluoromethyl)-9-(2,6-difluorophenyl)-3-pyridazin-3-yl-16-thia-2,4,5,8-tetrazatetracyclo [8.6.0.02,6.011,15]hexadeca-1(10),3,5,8,11(15)-pentaene] | 8.52 | 8.52 | 5.49 | 1090.8 | 3.04 | – |
| Cc1nnc2n1-c1sc3c(c1C(c1c(F)cccc1F)=NC2)C[C@@H](C)C3 [Example 14, (13R)-9-(2,6-difluorophenyl)-3,13-dimethyl-16-thia-2,4,5,8-tetrazatetracyclo [8.6.0.02,6.011,15]hexadeca-1(10),3,5,8,11(15)-pentaene] | 8.55 | 8.55 | 7.00 | 36.2 | 1.56 | – |
| C[C@@H]1N=C(c2c(F)cccc2Cl)c2c(sc3c2C[C@@H](C(F)F)C3)-n2c(C3CC3)nnc21 [Example 11, (7S,13R)-9-(2-chloro-6-fluoro-phenyl)-3-cyclopropyl-13-(difluoromethyl)-7-methyl-16-thia-2,4,5,8-tetrazatetracyclo [8.6.0.02,6.011,15]hexadeca-1(10),3,5,8,11(15)-pentaene] | 7.99 | 7.99 | 5.95 | 108.6 | 2.04 | – |
| Cc1nnc2n1-c1sc3c(c1C(c1c(F)cccc1F)=N[C@H]2C)C[C@@H](C(F)(F)F)C3 [Example 13, (7S,13R)-9-(2,6-difluorophenyl)-3,7-dimethyl-13-(trifluoromethyl)-16-thia-2,4,5,8-tetrazatetracyclo [8.6.0.02,6.011,15]hexadeca-1(10),3,5,8,11(15)-pentaene] | 7.79 | 7.79 | 6.15 | 43.5 | 1.64 | – |
